Measured values published in paper doi:10.1101/2025.07.02.662713v1, “A FRET-based high-throughput screening assay for the discovery of Mycobacterium tuberculosis DNA ADP-ribosylglycohydrolase DarG inhibitors” (biorxiv, 2025).

Assays:
[1] = molecular target: T1, MtbDarG MD; CFP-MtbDarG MD (Mycobacterium tuberculosis, UniProt O53605); assay: FRET displacement of PARylated YFP-GAP; format: binding
T1 construct: gene darG

PARP14 MD1 = molecular target: T2, PARP14 MD1 (Homo sapiens, UniProt Q460N5); assay: FRET displacement of MARylated YFP-GAP; format: binding
T2 construct: macrodomain 1 only, CFP fusion, produced as described earlier
T2 sequence (Q460N5 791-978 limits assumed): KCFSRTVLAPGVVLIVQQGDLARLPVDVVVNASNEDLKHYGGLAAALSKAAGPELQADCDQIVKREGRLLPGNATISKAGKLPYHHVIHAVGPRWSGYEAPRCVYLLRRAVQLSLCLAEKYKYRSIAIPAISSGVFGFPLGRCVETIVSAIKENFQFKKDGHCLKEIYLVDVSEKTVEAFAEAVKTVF

[2] = molecular target: T3, MtbDarG (hydrolysis assay) (Mycobacterium tuberculosis, UniProt O53605); assay: gel-based ADP-ribosyl-ssDNA hydrolysis assay; format: biochemical; conditions: 1 µM hydrolase, pranlukast 2-250 µM, pre-incubation 10 min; Tris pH 7.5, 37 °C, 30 min
T3 construct: gene darG

PARP15 MD1 = molecular target: T4, PARP15 MD1 (Homo sapiens, UniProt Q460N3); assay: FRET displacement of MARylated YFP-GAP; format: binding
T4 construct: macrodomain 1 only, CFP fusion, produced as described earlier
T4 sequence (Q460N3 78-267 limits assumed): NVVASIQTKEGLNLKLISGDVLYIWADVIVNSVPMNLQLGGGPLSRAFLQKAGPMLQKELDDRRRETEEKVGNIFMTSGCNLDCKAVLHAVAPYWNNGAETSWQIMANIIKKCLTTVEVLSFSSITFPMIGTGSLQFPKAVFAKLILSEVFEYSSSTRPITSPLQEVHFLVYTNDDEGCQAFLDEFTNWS

T. aq. DarG; T.aq. DarG = molecular target: T5, T. aq. DarG; T.aq. DarG (Thermus aquaticus, UniProt P0DV57); assay: gel-based ADP-ribosyl-ssDNA hydrolysis assay; format: biochemical; conditions: 1 µM hydrolase, pranlukast 2-250 µM, pre-incubation 10 min; Tris pH 7.5, 37 °C, 30 min
T5 construct: recombinant, prepared as previously published
T5 sequence (P0DV57 1-360): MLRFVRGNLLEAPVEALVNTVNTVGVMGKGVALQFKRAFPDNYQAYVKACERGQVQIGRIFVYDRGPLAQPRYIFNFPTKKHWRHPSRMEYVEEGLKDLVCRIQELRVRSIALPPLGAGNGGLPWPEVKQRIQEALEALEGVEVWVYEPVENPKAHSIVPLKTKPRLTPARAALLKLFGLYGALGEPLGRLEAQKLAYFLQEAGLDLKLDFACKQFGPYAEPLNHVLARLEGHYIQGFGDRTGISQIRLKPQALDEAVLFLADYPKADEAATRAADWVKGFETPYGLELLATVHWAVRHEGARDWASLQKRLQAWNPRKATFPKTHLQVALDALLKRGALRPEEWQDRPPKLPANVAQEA
Text: gel-based ADP-ribosyl-ssDNA hydrolysis assay on T. aq. DarG; T.aq.

PARP9 MD1 = molecular target: T6, PARP9 MD1 (Homo sapiens, UniProt Q8IXQ6); assay: FRET displacement of MARylated YFP-GAP; format: binding
T6 construct: macrodomain 1 only, CFP fusion, produced as described earlier

SCO6735 = molecular target: T7, SCO6735 (Streptomyces coelicolor, UniProt Q9X7P1); assay: gel-based ADP-ribosyl-ssDNA hydrolysis assay; format: biochemical; conditions: 1 µM hydrolase, pranlukast 2-250 µM, pre-incubation 10 min; Tris pH 7.5, 37 °C, 30 min
T7 construct: recombinant, prepared as previously published
T7 sequence (Q9X7P1 1-161): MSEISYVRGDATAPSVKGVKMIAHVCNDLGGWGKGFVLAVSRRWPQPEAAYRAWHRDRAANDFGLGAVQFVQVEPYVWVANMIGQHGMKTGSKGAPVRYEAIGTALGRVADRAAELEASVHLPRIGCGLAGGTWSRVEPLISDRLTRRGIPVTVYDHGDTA

T1 sequence (O53605 1-155): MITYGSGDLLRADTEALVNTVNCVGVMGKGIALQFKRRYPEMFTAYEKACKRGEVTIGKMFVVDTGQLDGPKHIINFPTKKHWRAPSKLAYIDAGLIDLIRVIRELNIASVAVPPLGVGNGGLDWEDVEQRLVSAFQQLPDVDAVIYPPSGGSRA
T3 sequence (O53605 whole entry): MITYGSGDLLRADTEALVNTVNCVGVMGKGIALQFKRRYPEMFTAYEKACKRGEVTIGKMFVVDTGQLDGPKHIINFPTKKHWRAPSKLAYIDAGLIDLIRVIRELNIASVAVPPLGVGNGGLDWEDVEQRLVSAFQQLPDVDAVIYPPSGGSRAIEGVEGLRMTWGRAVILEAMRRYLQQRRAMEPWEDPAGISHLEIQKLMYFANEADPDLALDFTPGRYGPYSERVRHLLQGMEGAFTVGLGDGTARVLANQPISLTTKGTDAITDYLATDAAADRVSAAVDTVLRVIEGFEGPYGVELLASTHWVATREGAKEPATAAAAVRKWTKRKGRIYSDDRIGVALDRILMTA

With `COc1ccc(-c2ccccc2)cc1NS(=O)(=O)c1cc(Cl)cc(Cl)c1O` [BMS303141] the IC50 [1] was 18.7 µM.

Work on `Cc1cc(SCc2sc(-c3ccc(C(F)(F)F)cc3)nc2C)ccc1OCC(=O)O` [GW501516] yielded an IC50 [1] of 56.5 µM.

With `O=C(Nc1cccc2c(=O)cc(-c3nn[nH]n3)oc12)c1ccc(OCCCCc2ccccc2)cc1` [pranlukast] the IC50 (PARP14 MD1) was about 100 µM, the “gel-based ADP-ribosyl-ssDNA hydrolysis assay” value [2] was “pranlukast inhibited the enzymatic activity of MtbDarG on this ADP-ribosylated ssDNA substrate” and the IC50 (PARP15 MD1) was about 100 µM. The “gel-based ADP-ribosyl-ssDNA hydrolysis assay” value (T. aq. DarG; T.aq. DarG) was “pranlukast exhibited an even higher inhibitory potency against DarG from Thermus aquaticus bacterium”, the IC50 [1] was 4 µM and the IC50 (PARP9 MD1) was about 100 µM. The “gel-based ADP-ribosyl-ssDNA hydrolysis assay” value (SCO6735) was “DarG from Thermus aquaticus bacterium (T.aq. DarG) and SCO6735”.

`O=C(O)C(=O)c1cn(Cc2ccccc2)c2ccc(-c3ccc(OC(F)(F)F)cc3)cc12` [tiplaxtinin] was tested, and the IC50 [1] was 5.7 µM.
